Data published in patent US9592223B2, “Small molecule inhibitors of MALT1” (Cornell University, priority 2012, dated 2017).
Where two headings read alike, the source gives them in different places.

Legend:
[1] = tested on: HBL-1 ABC-DLBCL xenografts; experiment: HBL-1 xenograft in NOD-SCID mice; format: in vivo; settings: IP 25 mg/kg/day
Procedure: (§1) Animals were sacrificed 24 hr after the fourteenth injection.
(§2) Eight-week old male SCID NOD.CB17-Prkdc^scid/J mice were subcutaneously injected with low-passage 10^7 human HBL-1, TMD8 or OCI-Ly1 cells. Treatment was administered by intra-peritoneal injection. Tumor volume was monitored by three-weekly digital calipering. All procedures followed US NIH protocols and were approved by the Animal Institute Committee of the Weill Cornell Medical College.
(§3) Eight-week old male SCID NOD.CB17-Prkdc^scid/J mice were purchased from Jackson Laboratories (Bar Harbor, Minn.) and housed in a clean environment. Mice were subcutaneously injected with low-passage 10^7 human TMD8 or OCI-Ly1 cells in 50% matrigel (BD Biosciences, #354234). Treatment was initiated when tumors reached an average size of 120 mm^3 (17 days post-transplantation). Drugs were reconstituted in DMSO and stored at −80° C. until used and were administered by intra-peritoneal injection. Tumor volume was monitored by three-weekly digital calipering (Fisher Scientific, Thermo Scientific, Rockford, Ill.) and calculated using the formula (smallest diameter^2×largest diameter)/2. Data were expressed as mean±SEM, and differences were considered statistically significant at p<0.05 by paired Student's t-test. All procedures involving animals followed US NIH protocols and were approved by the Animal Institute Committee of the Weill Cornell Medical College of Cornell University.
(§4) Paraffin-embedded tumor xenografts were sectioned, dewaxed and submitted to antigen retrieval. For IF-P, Alexa Fluor-488 conjugated secondary antibodies from Invitrogen where used and cell nuclei where counterstained with DAPI. Fluorescent images were taken using an Axiovert 200M fluorescent microscope (Carl Zeiss Inc., Thornwood, N.Y.). Oberkochen, Germany). For IHC, biotin-conjugated secondary antibodies where used. Then avidin/biotin peroxidase was applied to the slides (Vector Laboratories). Color was developed with diaminobenzoate chromogen peroxidase substrate (Vector) and counterstained with hematoxilin-eosyn. […]

c-REL nuclear protein = experiment: c-REL immunofluorescence in paraffinized xenograft tumor sections; format: in vivo, mice; settings: IP 25 mg/kg/day
Description: as §1
Paraffin-embedded tumor xenografts were sectioned, dewaxed and submitted to antigen retrieval. For IF-P, Alexa Fluor-488 conjugated secondary antibodies from Invitrogen where used and cell nuclei where counterstained with DAPI. Fluorescent images were taken using an Axiovert 200M fluorescent microscope (Carl Zeiss Inc., Thornwood, N.Y.). Oberkochen, Germany). For IHC, biotin-conjugated secondary antibodies where used. Then avidin/biotin peroxidase was applied to the slides (Vector Laboratories). Color was developed with diaminobenzoate chromogen peroxidase substrate (Vector) and counterstained with hematoxilin-eosyn. Pictures were obtained using an AxioCam (Carl Zeiss Inc.) camera attached to an AxioSkop II light microscope (Carl Zeiss Inc.). Samples were reviewed by a pathologist.

OCI-Ly10 cells = experiment: Growth inhibition, ATP-based luminescent assay; format: cell-based; settings: Homo sapiens; OCI-Ly10, single dose, 48 hr
Procedure: (§5) Cell proliferation was determined by ATP quantification using a luminescent method (CellTiter-Glo, Promega, Madison, Wis.) and Trypan blue dye-exclusion (Sigma, St. Louis, Mo.). Cell viability in drug-treated cells was normalized to their respective controls (fractional viability) and results are given as 1-fractional viability. CompuSyn software (Biosoft, Cambridge, UK) was used to determine drug concentrations inhibiting fractional growth compared to controls.
(§6) DLBCL cell lines were grown in exponential growth conditions during the 48 hr of treatment. Cell proliferation was determined by ATP quantification using a luminescent method (CellTiter-Glo, Promega, Madison, Wis.) and Trypan blue dye-exclusion (Sigma, St. Louis, Mo.). Luminescence was measured using the Synergy4 microplate reader (BioTek Instruments, Winooski, Vt.). Standard curves for each cell line were calculated by plotting the cell number (determined by the Trypan blue method) against their luminescence values and number of cells was calculated accordingly. Cell viability in drug-treated cells was normalized to their respective controls (fractional viability) and results are given as 1-fractional viability. CompuSyn software (Biosoft, Cambridge, UK) was used to determine the drug concentration that inhibits the growth of cell lines by 25% compared to control (GI25). Experiments were performed in triplicate.

HBL-1 cells = experiment: Growth inhibition, ATP-based luminescent assay; format: cell-based; settings: Homo sapiens, HBL1
Procedure: as §5, §6

OCI-Ly3 cells = experiment: Growth inhibition, ATP-based luminescent assay; format: cell-based; settings: Homo sapiens; OCI-Ly3, single dose, 48 hr
Procedure: as §5, §6

TMD8 cells = experiment: Growth inhibition, ATP-based luminescent assay; format: cell-based; settings: Homo sapiens
Procedure: as §5
as §6, with “CompuSyn software (Biosoft, Cambridge, UK) was used to determine the drug concentration that inhibits the growth of cell lines by 25% compared to control (GI25).” left out

[2] = tested on: TMD8 ABC-DLBCL xenografts; experiment: TMD8 xenograft in NOD-SCID mice; format: in vivo; settings: IP 25 mg/kg/day
Procedure: as §1, §2, §3, §4

LZ-MALT1 = biological target: T1, LZ-MALT1 (Homo sapiens, UniProt Q9UDY8); experiment: Dose-effect and time-course of MALT1 inhibition (pre-incubation, then Ac-LRSR-AMC); format: biochemical; settings: pre-incubation 5 to 80 minutes
T1 construct: His tag (N); made in house; host or cells: E. coli
Procedure: The reactions were monitored in a SpectraMax M5 plate reader (Molecular Devices, Sunnyvale, Calif. USA) with excitation/emission wavelength at 360/465 nm and 20 seconds intervals. Normalized percentage of inhibition was calculated with the following formula: (M(T2-T1)−N(T2-T1))/(P(T2-T1)−N(T2-T1))*100, where M(T2-T1) is the difference signal of compound at time point 200s and 0s, N(T2-T1) is the difference signal of negative control buffer only, P(T2-T1) is the difference signal of positive control Z-VRPR-FMK.

T1 sequence (Q9UDY8 with tags, fused parts or gaps limits assumed): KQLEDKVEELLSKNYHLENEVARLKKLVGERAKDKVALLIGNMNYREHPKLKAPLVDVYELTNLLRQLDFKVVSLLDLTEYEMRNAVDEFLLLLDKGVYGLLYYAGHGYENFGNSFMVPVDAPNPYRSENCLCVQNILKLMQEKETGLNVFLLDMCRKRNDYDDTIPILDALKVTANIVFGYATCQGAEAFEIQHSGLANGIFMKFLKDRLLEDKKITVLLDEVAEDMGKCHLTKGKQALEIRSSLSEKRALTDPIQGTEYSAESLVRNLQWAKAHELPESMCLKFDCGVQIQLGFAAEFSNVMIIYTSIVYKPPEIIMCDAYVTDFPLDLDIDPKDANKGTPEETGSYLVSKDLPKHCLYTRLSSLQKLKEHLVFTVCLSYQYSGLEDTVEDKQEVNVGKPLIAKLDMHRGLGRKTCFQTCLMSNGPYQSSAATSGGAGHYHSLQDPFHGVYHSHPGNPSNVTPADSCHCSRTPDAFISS

## COCCOc1nc(-c2ccc(Cl)c(Cl)c2)n(-c2ccc(NC(=O)CCl)cc2)n1 [MI-2]
[1]; fourteen injections, p=0.014
  xenograft growth vs. vehicle: profoundly suppressed the growth
[1]; p<0.0001
  proliferation (Ki-67 staining): significant decrease in proliferation
[1]; p=0.0008
  apoptotic cells (TUNEL assay): significant increase in apoptotic cells
c-REL nuclear protein
  c-REL nuclear protein in tumors: reduced c-REL nuclear protein
OCI-Ly10 cells
  GI50: 400 nM
HBL-1 cells; HBL-1, single dose, 48 hr, read-out: GI50
  GI50: 200 nM
HBL-1 cells; HBL-1, read-out: GI50 concentration
  GI50: 200 nM
OCI-Ly3 cells
  GI50: 400 nM
TMD8 cells; TMD8, read-out: GI50 concentration
  GI50: 500 nM
TMD8 cells; TMD8, single dose, 48 hr, read-out: GI50
  GI50: 500 nM
[2]; fourteen injections, p=0.015
  xenograft growth vs. vehicle: profoundly suppressed the growth
[2]; p<0.0001
  apoptotic cells (TUNEL assay): significant increase in apoptotic cells
[2]; p=0.0006
  proliferation (Ki-67 staining): significant decrease in proliferation
LZ-MALT1
  kind of inhibition (time dependence): covalent and irreversible inhibition
  percent MALT1 inhibition reached: ~100%
